Laboratory results published in patent US10172358B2, “Thiopicolinamide compounds with fungicidal activity” (Dow AgroSciences LLC, priority 2016, dated 2019).
Where two headings read alike, the source gives them in different places.

Key:
Phakopsora pachyrhizi = experiment: Fungicidal activity: Asian soybean rust (PHAKPA), disease control on soybean seedlings; format: in vivo
Procedure: Evaluation of Fungicidal Activity: Asian Soybean Rust (Phakopsora Pachyrhizi; Bayer Code PHAKPA)
Technical grades of materials were dissolved in acetone, which were then mixed with nine volumes of H2O containing 0.011% Tween 20. The fungicide solutions were applied onto soybean seedlings using an automated booth sprayer to run-off. All sprayed plants were allowed to air dry prior to further handling.
Soybean plants (variety Williams 82) were grown in soil-less Metro mix, with one plant per pot. Two weeks old seedlings were used for testing. Plants were inoculated either 3 days prior to or 1 day after fungicide treatments. Plants were incubated for 24 h in a dark dew room at 22° C. and 100% relative humidity then transferred to a growth room at 23° C. for disease to develop. Disease severity was assessed on the sprayed leaves.

Puccinia triticina = experiment: Fungicidal activity: wheat brown rust (PUCCRT), disease control on wheat seedlings; format: in vivo, Puccinia triticina on wheat plants (variety Yuma); conditions: low volume application, 121.5 g/H
Procedure: Technical grades of materials were dissolved in acetone, which were then mixed with nine volumes of water (H2O) containing 110 ppm Triton X-100. The fungicide solutions were applied onto wheat seedlings using an automated booth sprayer to run-off. All sprayed plants were allowed to air dry prior to further handling. All fungicides were evaluated using the aforementioned method for their activity vs. all target diseases, unless stated otherwise. Wheat leaf blotch and brown rust activity were also evaluated using track spray applications, in which case the fungicides were formulated as EC formulations, containing 0.1% Trycol 5941 in the spray solutions. Evaluation of Fungicidal Activity: Wheat Brown Rust (Puccinia triticina; Synonym: Puccinia recondita f. Sp. Tritici; Bayer Code PUCCRT) Wheat plants (variety Yuma) were grown from seed in a greenhouse in 50% mineral soil/50% soil-less Metro mix until the first leaf was fully emerged, with 7-10 seedlings per pot. These plants were inoculated with an aqueous spore suspension of Puccinia triticina either prior to or after fungicide treatments. After inoculation the plants were kept in a dark dew room at 22° C. with 100% relative humidity overnight to permit spores to germinate and infect the leaf. The plants were then transferred to a greenhouse set at 24° C. for disease to develop. Fungicide formulation, application and disease assessment followed the procedures as described in the Example A. The results of the evalution are shown below in Table 4.

Zymoseptoria tritici = experiment: Fungicidal activity: leaf blotch of wheat (SEPTTR), disease control on wheat seedlings; format: in vivo, Zymoseptoria tritici on wheat plants (variety Yuma); conditions: low volume application, 121.5 g/H
Procedure: Evaluation of Fungicidal Activity: Leaf Blotch of Wheat (Zymoseptoria Tritici; Bayer Code […]) Technical grades of materials were dissolved in acetone, which were then mixed with nine volumes of water (H2O) containing 110 ppm Triton X-100. The fungicide solutions were applied onto wheat seedlings using an automated booth sprayer to run-off. All sprayed plants were allowed to air dry prior to further handling. All fungicides were evaluated using the aforementioned method for their activity vs. all target diseases, unless stated otherwise. Wheat leaf blotch and brown rust activity were also evaluated using track spray applications, in which case the fungicides were formulated as EC formulations, containing 0.1% Trycol 5941 in the spray solutions. Wheat plants (variety Yuma) were grown from seed in a greenhouse in 50% mineral soil/50% soil-less Metro mix until the first leaf was fully emerged, with 7-10 seedlings per pot. These plants were inoculated with an aqueous spore suspension of Zymoseptoria tritici either prior to or after fungicide treatments. After inoculation the plants were kept in 100% relative humidity (one day in a dark dew chamber followed by two to three days in a lighted dew chamber at 20° C.) to permit spores to germinate and infect the leaf. The plants were then transferred to a greenhouse set at 20° C. for disease to develop. When disease symptoms were fully expressed on the 1st leaves of untreated plants, infection levels were assessed on a scale of 0 to 100 percent disease severity. Percent disease control was calculated using the ratio of disease severity on treated plants relative to untreated plants.

[1] = 24 h, 1 day protectant, read-out: PHAKPA 1DP disease control at 25 ppm
[2] = 72 h, 3 day curative, read-out: PUCCRT 3DC disease control, LV activity at 121.5 g/H
[3] = 24 h, 1 day protectant, read-out: SEPTTR 1DP disease control, LV activity at 121.5 g/H
[4] = 72 h, 3 day curative, read-out: SEPTTR 3DC disease control, LV activity at 121.5 g/H
[5] = 24 h, 1 day protectant, read-out: PUCCRT 1DP disease control, LV activity at 121.5 g/H
[6] = 72 h, 3 day curative, read-out: PHAKPA 3DC disease control at 25 ppm

SMILES | pest or weed control at 25 ppm (Phakopsora pachyrhizi; [1]) [%] | pest or weed control at 121.5 g/ha (Puccinia triticina; [2]) [%] | pest or weed control at 121.5 g/ha (Zymoseptoria tritici; [3]) [%] | pest or weed control at 121.5 g/ha (Zymoseptoria tritici; [4]) [%] | pest or weed control at 121.5 g/ha (Puccinia triticina; [5]) [%] | pest or weed control at 25 ppm (Phakopsora pachyrhizi; [6]) [%]
COc1ccnc(C(=S)N[C@@H](C)C(=O)O[C@H](CC(C)C)[C@H](C)Oc2ccccc2)c1OC(C)=O [Compound 40] | ≤ 80 | ≤ 80 | – | – | – | –
COc1ccnc(C(=S)N[C@@H](C)C(=O)O[C@@H](C)C(c2ccc(Cl)cc2)c2ccc(Cl)cc2)c1OC(C)=O [Compound 47] | – | ≤ 80 | > 80 | > 80 | > 80 | –
COc1ccnc(C(=S)N[C@@H](C)C(=O)O[C@@H](C)C(c2ccc(C)cc2C)c2ccc(C)cc2C)c1OC(C)=O [Compound 48] | – | – | > 80 | > 80 | > 80 | –
COc1ccnc(C(=S)N[C@@H](C)C(=O)O[C@@H](C)[C@H](Oc2ccc(Cl)cc2Cl)c2ccccc2)c1OC(C)=O [Compound 49] | – | – | ≤ 80 | – | ≤ 80 | –
COc1ccnc(C(=S)N[C@@H](C)C(=O)O[C@@H](C)C(c2ccc(C)cc2)c2ccc(C)cc2)c1OC(C)=O [Compound 50] | – | > 80 | > 80 | > 80 | > 80 | –
COc1ccnc(C(=S)N[C@@H](C)C(=O)O[C@@H](C)[C@@H](c2ccccc2)c2ccc(F)cc2)c1OC(C)=O [Compound 51] | – | ≤ 80 | > 80 | > 80 | > 80 | –
COc1cc(Cl)ccc1C(c1ccc(Cl)cc1OC)[C@H](C)OC(=O)[C@H](C)NC(=S)c1nccc(OC)c1OC(C)=O [Compound 52] | – | ≤ 80 | > 80 | > 80 | > 80 | –
COc1ccc(C(c2ccc(OC)cc2F)[C@H](C)OC(=O)[C@H](C)NC(=S)c2nccc(OC)c2OC(C)=O)c(F)c1 [Compound 53] | – | ≤ 80 | > 80 | > 80 | > 80 | –
COc1ccccc1C(c1ccccc1OC)[C@H](C)OC(=O)[C@H](C)NC(=S)c1nccc(OC)c1OC(C)=O [Compound 54] | – | – | > 80 | > 80 | > 80 | –
COc1ccnc(C(=S)N[C@@H](C)C(=O)O[C@H](C(C)C)[C@H](C)Oc2ccc(C)cc2)c1OC(C)=O [Compound 56] | – | > 80 | ≤ 80 | ≤ 80 | > 80 | –
COc1ccnc(C(=S)N[C@@H](C)C(=O)O[C@@H](C)[C@H](Oc2ccccc2Cl)c2ccccc2)c1OC(C)=O [Compound 57, (1R,2S)-1-(2-chlorophenoxy)-1-phenylpropan-2-yl (3-acetoxy-4-methoxypyridine-2-carbonothioyl)-L-alaninate] | – | ≤ 80 | > 80 | > 80 | > 80 | –
COc1ccc(O[C@@H](C)[C@H](OC(=O)[C@H](C)NC(=S)c2nccc(OC)c2OC(C)=O)C(C)C)cc1 [Compound 58] | – | > 80 | > 80 | > 80 | > 80 | –
COc1ccnc(C(=S)N[C@H](C)C(=O)O[C@@H](C)C(c2ccc(F)cc2)c2ccc(F)cc2)c1OC(C)=O [Compound 59] | – | ≤ 80 | > 80 | – | ≤ 80 | –
C=CC[C@@H](Oc1ccccc1)[C@H](C)OC(=O)[C@H](C)NC(=S)c1nccc(OC)c1OC(C)=O [Compound 60] | – | > 80 | ≤ 80 | ≤ 80 | > 80 | –
COc1ccnc(C(=S)N[C@@H](C)C(=O)O[C@H](C(C)C)[C@H](C)Oc2ccccc2)c1OC(C)=O [Compound 61] | > 80 | > 80 | ≤ 80 | > 80 | > 80 | > 80
CCC[C@@H](Oc1ccc(C)cc1)[C@H](C)OC(=O)[C@H](C)NC(=S)c1nccc(OC)c1OC(C)=O [Compound 62] | ≤ 80 | > 80 | ≤ 80 | – | > 80 | ≤ 80
COc1ccnc(C(=S)N[C@@H](C)C(=O)O[C@@H](C)C(c2ccc(F)cc2F)c2ccc(F)cc2F)c1OC(C)=O [Compound 63] | > 80 | ≤ 80 | > 80 | > 80 | > 80 | ≤ 80
COc1ccnc(C(=S)N[C@@H](C)C(=O)O[C@@H](C)[C@@H](c2ccc(F)cc2)c2ccc(F)cc2C)c1OC(C)=O [Compound 64] | > 80 | ≤ 80 | > 80 | > 80 | > 80 | > 80
COc1cc(C)ccc1C(c1ccc(C)cc1OC)[C@H](C)OC(=O)[C@H](C)NC(=S)c1nccc(OC)c1OC(C)=O [Compound 65] | > 80 | > 80 | > 80 | > 80 | > 80 | ≤ 80
CC[C@H](OC(=O)[C@H](C)NC(=S)c1nccc(OC)c1OC(C)=O)[C@@H](C)Oc1ccccc1 [Compound 66] | ≤ 80 | ≤ 80 | – | – | ≤ 80 | ≤ 80
COc1cc(F)ccc1C(c1ccc(F)cc1OC)[C@H](C)OC(=O)[C@H](C)NC(=S)c1nccc(OC)c1OC(C)=O [Compound 67] | > 80 | ≤ 80 | > 80 | > 80 | > 80 | ≤ 80
COc1ccnc(C(=S)N[C@H](C)C(=O)O[C@H](C)C(c2ccc(F)cc2)c2ccc(F)cc2)c1OC(C)=O [Compound 68] | ≤ 80 | ≤ 80 | ≤ 80 | – | – | –
COc1ccnc(C(=S)N[C@@H](C)C(=O)O[C@@H](C(C)C)[C@@H](C)Oc2ccccc2)c1OC(C)=O [Compound 69] | ≤ 80 | ≤ 80 | – | ≤ 80 | ≤ 80 | –
COc1cc(F)ccc1[C@@H](c1ccc(F)cc1)[C@H](C)OC(=O)[C@H](C)NC(=S)c1nccc(OC)c1OC(C)=O [Compound 70] | > 80 | > 80 | > 80 | > 80 | > 80 | ≤ 80
CCC[C@H](OC(=O)[C@H](C)NC(=S)c1nccc(OC)c1OC(C)=O)[C@@H](C)Oc1ccccc1 [Compound 76] | ≤ 80 | – | – | – | – | –
